According to patent US9227971B2, “Pyrazolo[1,5-a]pyrimidine compounds as mTOR inhibitors” (Merck Sharp & Dohme Corp., priority 2010, dated 2016):
Where two headings read alike, the source gives them in different places.

Legend:
[1] = test system: phosphorylated AKT Ser473 (pAKT S473), mTORC2 activity, PC3 cells; assay: mTOR target engagement assay, immunofluorescent cell-based, pAKT S473 readout (mTORC2 activity)
Procedure, shortened: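 After blocking, cells were stained overnight at 4 °C with anti-pAKT S473 antibody, then a fluorescent secondary; inhibition was read as reduced fluorescence intensity.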

[2] = test system: phosphorylated 4E-BP1 Thr37/46 (p4E-BP1 Thr37/46), mTORC1 activity, PC3 cells; assay: mTOR target engagement assay, immunofluorescent cell-based, p4E-BP1 Thr37/46 readout (mTORC1 activity); conditions: read-out: p4E-BP1 Thr37/46 IC50
Procedure, shortened: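 Read-out is fluorescence intensity of immunostained p4E-BP1 Thr37/46 in fixed PC3 cells, fitted to a logistic curve for IC50 with DMSO-only wells as top. Cells had been exposed to serial compound dilutions for ninety minutes at 37° C in 5% FBS medium with 0.25% DMSO.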

[3] = Homo sapiens, PC-3, Table 6-1, PC3 cells
[4] = Homo sapiens, PC-3, Table 3-1, PC3 cells
[5] = Homo sapiens, PC-3, PC3 cells, compound treatment ninety minutes at 37° C.
[6] = Homo sapiens, PC-3, Table 7-8, PC3 cells
[7] = Homo sapiens, PC-3, Table 7-2, PC3 cells

Compound `CC1(O)CCCc2cc(-c3cnn4c(N)c(C5CC5)c([C@H]5CC6CC[C@H](C5)N6C(=O)c5nnc[nH]5)nc34)cnc21` (stereo partly drawn) [Compound 7.55, ((1R,3s,5S)-3-(7-amino-6-cyclopropyl-3-(8-hydroxy-8-methyl-5,6,7,8-tetrahydroquinolin-3-yl)pyrazolo[1,5-a]pyrimidin-5-yl)-8-azabicyclo[3.2.1]octan-8-yl)(4H-1,2,4-triazol-3-yl)methanone] has an IC50 ([1]; Homo sapiens, PC-3, PC3 cells) of 100 to 1000 nM and an IC50 ([2]; Homo sapiens, PC-3, PC3 cells) of 100 to 1000 nM.

For `CC(=O)c1c([C@@H]2C[C@H]3CC[C@@H](C2)N3C(=O)c2nnc[nH]2)nc2c(-c3ccc(-c4ncc(C)[nH]4)c(F)c3)cnn2c1N` [Compound 6.39, 1-(5-((1R,3s,5S)-8-(4H-1,2,4-triazole-3-carbonyl)-8-azabicyclo[3.2.1]octan-3-yl)-7-amino-3-(3-fluoro-4-(5-methyl-1H-imidazol-2-yl)phenyl)pyrazolo[1,5-a]pyrimidin-6-yl)ethanone], the IC50 [1, 3] was 1 to 100 nM and the IC50 [2, 3] was 100 to 1000 nM.

Compound `CS(=O)(=O)c1c([C@@H]2C[C@H]3CC[C@@H](C2)N3C(=O)c2cc3cnccc3[nH]2)nc2c(-c3ccc(-c4ccccc4)nc3)cnn2c1N` [Compound 3.76, ((1R,3s,5S)-3-(7-amino-6-(methylsulfonyl)-3-(6-phenylpyridin-3-yl)pyrazolo[1,5-a]pyrimidin-5-yl)-8-azabicyclo[3.2.1]octan-8-yl)(1H-pyrrolo[3,2-c]pyridin-2-yl)methanone] has an IC50 [1, 4] of 1 to 100 nM and an IC50 [2, 4] of 1 to 100 nM.

Compound `COCCOCc1ccc(-c2cnn3c(N)c(S(C)(=O)=O)c([C@@H]4C[C@H]5CC[C@@H](C4)N5C(=O)c4nnc[nH]4)nc23)cn1` [Compound 7.32, ((1R,3s,5S)-3-(7-amino-3-(6-((2-methoxyethoxy)methyl)pyridin-3-yl)-6-(methylsulfonyl)pyrazolo [1,5-a]pyrimidin-5-yl)-8-azabicyclo[3.2.1]octan-8-yl)(4H-1,2,4-triazol-3-yl)methanone] has an IC50 [1, 5] of over 10000 nM and an IC50 [2, 5] of 1000 to 10000 nM.

With `Cn1ccc(-c2ccc(-c3cnn4c(N)c(S(C)(=O)=O)c([C@@H]5C[C@H]6CC[C@@H](C5)N6C(=O)c5nnc[nH]5)nc34)cn2)n1` [Compound 3.40, ((1R,3s,5S)-3-(7-amino-3-(6-(1-methyl-1H-pyrazol-3-yl)pyridin-3-yl)-6-(methylsulfonyl)pyrazolo[1,5-a]pyrimidin-5-yl)-8-azabicyclo[3.2.1]octan-8-yl)(4H-1,2,4-triazol-3-yl)methanone] the IC50 [1, 4] was 1 to 100 nM and the IC50 [2, 4] was 1 to 100 nM.

In the case of `Cc1cnc(-c2ccc(-c3cnn4c(N)c(S(C)(=O)=O)c([C@H]5CC6CC[C@H](C5)N6C(=O)c5nnc[nH]5)nc34)cn2)s1` [Compound 3.180, ((1R,3s,5S)-3-(7-amino-6-(methylsulfonyl)-3-(6-(5-methylthiazol-2-yl)pyridin-3-yl)pyrazolo[1,5-a]pyrimidin-5-yl)-8-azabicyclo[3.2.1]octan-8-yl)(4H-1,2,4-triazol-3-yl)methanone], the IC50 [1, 4] is reported as 1 to 100 nM and the IC50 [2, 4] is reported as 1 to 100 nM.

In the case of `CC(=O)c1c([C@@H]2C[C@H]3CC[C@@H](C2)N3C(=O)c2nnc[nH]2)nc2c(-c3ccc(NC4CC4)nc3)cnn2c1N` [Compound 8.47, 1-(5-((1R,3s,5S)-8-(4H-1,2,4-triazole-3-carbonyl)-8-azabicyclo[3.2.1]octan-3-yl)-7-amino-3-(6-(cyclopropylamino)pyridin-3-yl)pyrazolo[1,5-a]pyrimidin-6-yl)ethanone], the IC50 ([1]; PC3 cells) is reported as 1 to 100 nM and the IC50 ([2]; PC3 cells) is reported as 1 to 100 nM.

For `CS(=O)(=O)c1c([C@@H]2C[C@H]3CC[C@@H](C2)N3C(=O)c2nnc[nH]2)nc2c(-c3ccc(OC4CCC4)nc3)cnn2c1N` [Compound 8.53, ((1R,3s,5S)-3-(7-amino-3-(6-cyclobutoxypyridin-3-yl)-6-(methylsulfonyl)pyrazolo[1,5-a]pyrimidin-5-yl)-8-azabicyclo[3.2.1]octan-8-yl)(4H-1,2,4-triazol-3-yl)methanone], the IC50 ([1]; Homo sapiens, PC-3, PC3 cells) was 1000 to 10000 nM and the IC50 ([2]; Homo sapiens, PC-3, PC3 cells) was 1000 to 10000 nM.

`CC(=O)c1c([C@@H]2C[C@H]3CC[C@@H](C2)N3C(=O)c2nnc[nH]2)nc2c(-c3ccc(C4(O)COC4)nc3)cnn2c1N` [Compound 7.45, 1-(5-((1R,3s,5S)-8-(4H-1,2,4-triazole-3-carbonyl)-8-azabicyclo[3.2.1]octan-3-yl)-7-amino-3-(6-(3-hydroxyoxetan-3-yl)pyridin-3-yl)pyrazolo[1,5-a]pyrimidin-6-yl)ethanone] gave an IC50 [1, 6] of 100 to 1000 nM and an IC50 [2, 6] of 100 to 1000 nM.

For `COc1ccc2ncc(-c3cnn4c(N)c(C(C)=O)c([C@@H]5C[C@H]6CC[C@@H](C5)N6C(=O)c5nnc[nH]5)nc34)cc2c1` [Compound 1.1.125, 1-(5-((1R,3s,5S)-8-(4H-1,2,4-triazole-3-carbonyl)-8-azabicyclo[3.2.1]octan-3-yl)-7-amino-3-(6-methoxyquinolin-3-yl)pyrazolo[1,5-a]pyrimidin-6-yl)ethanone], the IC50 [1, 5] was 1000 to 10000 nM and the IC50 [2, 5] was 100 to 1000 nM.

Work on `CC(=O)c1c([C@@H]2C[C@H]3CC[C@@H](C2)N3C(=O)c2nnc[nH]2)nc2c(-c3ccc(C(F)(F)F)nc3)cnn2c1N` [Compound 1.1.104, 1-(5-((1R,3s,5S)-8-(4H-1,2,4-triazole-3-carbonyl)-8-azabicyclo[3.2.1]octan-3-yl)-7-amino-3-(6-(trifluoromethyl)pyridin-3-yl)pyrazolo[1,5-a]pyrimidin-6-yl)ethanone] yielded an IC50 [1, 5] of 100 to 1000 nM and an IC50 [2, 5] of 100 to 1000 nM.

With `CS(=O)(=O)c1c([C@@H]2C[C@H]3CC[C@@H](C2)N3c2nccc(N)n2)nc2c(-c3ccc(-c4ccccc4)nc3)cnn2c1N` [Compound 8.63, 5-((1R,3s,5S)-8-(4-aminopyrimidin-2-yl)-8-azabicyclo[3.2.1]octan-3-yl)-6-(methylsulfonyl)-3-(6-phenylpyridin-3-yl)pyrazolo[1,5-a]pyrimidin-7-amine] the IC50 ([1]; Homo sapiens, PC-3, PC3 cells) was 1000 to 10000 nM and the IC50 ([2]; Homo sapiens, PC-3, PC3 cells) was 1000 to 10000 nM.

Compound `[2H]C([2H])([2H])Oc1ccc(-c2ccc(-c3cnn4c(N)c(C(C)=O)c([C@@H]5C[C@H]6CC[C@@H](C5)N6C(=O)c5nnc[nH]5)nc34)cn2)cc1` [Compound 1.1.77, 1-(5-((1R,3s,5S)-8-(4H-1,2,4-triazole-3-carbonyl)-8-azabicyclo[3.2.1]octan-3-yl)-7-amino-3-(6-(4-methoxy-(D3)-phenyl)pyridin-3-yl)pyrazolo[1,5-a]pyrimidin-6-yl)ethanone] has an IC50 [1, 5] of 1 to 100 nM and an IC50 [2, 5] of 1 to 100 nM.

With `COCc1c([C@@H]2C[C@H]3CC[C@@H](C2)N3C(=O)c2cc(N)n[nH]2)nc2c(-c3ccc(-c4ccccc4)nc3)cnn2c1N` [Compound 5.5, (3-amino-1H-pyrazol-5-yl)((1R,3s,5S)-3-(7-amino-6-(methoxymethyl)-3-(6-phenylpyridin-3-yl)pyrazolo[1,5-a]pyrimidin-5-yl)-8-azabicyclo[3.2.1]octan-8-yl)methanone] the IC50 [1, 5] was 100 to 1000 nM and the IC50 [2, 5] was 1000 to 10000 nM.

`CS(=O)(=O)c1c([C@@H]2C[C@H]3CC[C@@H](C2)N3C(=O)[C@H]2CCCN2)nc2c(-c3ccc(-c4ccccc4)nc3)cnn2c1N` [Compound 3.205] showed an IC50 [1, 4] of 100 to 1000 nM and an IC50 [2, 4] of 100 to 1000 nM.

`CC(=O)c1c([C@@H]2C[C@H]3CC[C@@H](C2)N3S(=O)(=O)O)nc2c(-c3ccc(-c4ccccc4)nc3)cnn2c1N` [Compound 1.1.49, (1R,3s,5S)-3-(6-acetyl-7-amino-3-(6-phenylpyridin-3-yl)pyrazolo[1,5-a]pyrimidin-5-yl)-8-azabicyclo[3.2.1]octane-8-sulfonic acid] gave an IC50 [1, 5] of 1000 to 10000 nM and an IC50 [2, 5] of over 10000 nM.

For `CC(C)(O)c1ccc(-c2cnn3c(N)c(S(C)(=O)=O)c([C@@H]4C[C@H]5CC[C@@H](C4)N5C(=O)c4nnc[nH]4)nc23)cn1` [Compound 7.27, ((1R,3s,5S)-3-(7-amino-3-(6-(2-hydroxypropan-2-yl)pyridin-3-yl)-6-(methylsulfonyl)pyrazolo[1,5-a]pyrimidin-5-yl)-8-azabicyclo[3.2.1]octan-8-yl)(1H-1,2,4-triazol-5-yl)methanone], the IC50 [1, 7] was 1 to 100 nM and the IC50 [2, 7] was 1 to 100 nM.

For `Nc1c(CO)c([C@@H]2C[C@H]3CC[C@@H](C2)N3C(=O)c2nnc[nH]2)nc2c(-c3ccc(-c4ccccc4)nc3)cnn12` [Compound 5.7, ((1R,3s,5S)-3-(7-amino-6-(hydroxymethyl)-3-(6-phenylpyridin-3-yl)pyrazolo[1,5-a]pyrimidin-5-yl)-8-azabicyclo[3.2.1]octan-8-yl)(4H-1,2,4-triazol-3-yl)methanone], the IC50 [1, 5] was 1 to 100 nM and the IC50 [2, 5] was 1 to 100 nM.

`CNC(=O)Nc1ccc(-c2cnn3c(N)c(C(C)=O)c([C@@H]4C[C@H]5CC[C@@H](C4)N5C(=O)c4nnc[nH]4)nc23)cc1` [Compound 8.85, 1-(4-(5-((1R,3s,5S)-8-(4H-1,2,4-triazole-3-carbonyl)-8-azabicyclo[3.2.1]octan-3-yl)-6-acetyl-7-aminopyrazolo[1,5-a]pyrimidin-3-yl)phenyl)-3-methylurea] showed an IC50 ([1]; Homo sapiens, PC-3, PC3 cells) of 1 to 100 nM and an IC50 ([2]; Homo sapiens, PC-3, PC3 cells) of 100 to 1000 nM.

Work on `Nc1nnc(C(=O)N2[C@@H]3CC[C@H]2C[C@H](c2nc4c(-c5ccc(C(N)(C(F)(F)F)C(F)(F)F)nc5)cnn4c(N)c2C2CC2)C3)[nH]1` [Compound 7.88, ((1R,3s,5S)-3-(7-amino-3-(6-(2-amino-1,1,1,3.3,3-hexafluoropropan-2-yl)pyridin-3-yl)-6-cyclopropylpyrazolo [1,5-a]pyrimidin-5-yl)-8-azabicyclo[3.2.1]octan-8-yl)(5-amino-4H-1,2,4-triazol-3-yl)methanone] yielded an IC50 ([1]; Homo sapiens, PC-3, PC3 cells) of 1000 to 10000 nM and an IC50 ([2]; Homo sapiens, PC-3, PC3 cells) of 1000 to 10000 nM.
